Laboratory results taken from the supplement of paper PMC7695840.
Several values for one entry are separate records, joined by “and”; a condition that tells them apart may be missing. Identical values can stand only once. Counter-ions that a name gives are not always drawn.

Tests used:
[1] = system: Staphylococcus aureus MW2 delta-mecA (mecA-); experiment: IC50 (growth, competition assay); conditions: cefoxitin: subinhibitory
How it was run: (§1)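 Two fluorescent S. aureus MW2 strains, one carrying and one lacking the resistance gene, were pre-induced, mixed 1:1 and grown unshaken in LB in 1536-well plates for 20 h at 37 °C and 90% humidity with a subinhibitory drug dose set each day. Compounds were tested on five- or nine-point 2-fold gradients in two dye-swapped replicates. DsRed (540/590) and GFP (485/520) signals were scaled per plate between the medians of single-strain controls, and No Treatment was then set to 0.5. For each strain, IC50 was taken as the dose that halved the No Treatment signal, or else the maximal signal.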

[2] = system: Staphylococcus aureus MW2 (mecA+); experiment: IC50 (growth, competition assay); conditions: cefoxitin: subinhibitory
How it was run: as §1

Structure (SMILES): C/C=C(/C(=C/C)c1ccc(O)cc1)c1ccc(O)cc1 [ESTRAGUARD]
- IC50 ([1]; fluorescent label: DsRed): 18.5 µM
- IC50 ([1]; fluorescent label: GFP): < 9.85 µM
- IC50 ([2]; fluorescent label: DsRed): 30.7 µM
- IC50 ([2]; fluorescent label: GFP): 52.9 µM

Structure (SMILES): Cc1cc(-n2c(=O)[nH]c(=O)n(C)c2=O)ccc1Oc1ccc(SC(F)(F)F)cc1 [Toltrazuril]
- IC50 ([1]; fluorescent label: DsRed): 24.3 µM
- IC50 ([1]; fluorescent label: GFP): 27.3 µM
- IC50 ([2]; fluorescent label: DsRed): 34.6 µM
- IC50 ([2]; fluorescent label: GFP): 71.9 µM

Structure (SMILES): COc1cccc(C2(O)CCCCC2CN(C)C)c1 (stereo unspecified) [ULTRAM]
- IC50 ([1]; fluorescent label: DsRed): 101 µM
- IC50 ([1]; fluorescent label: GFP): 60.8 µM
- IC50 ([2]; fluorescent label: DsRed): 131 µM
- IC50 ([2]; fluorescent label: GFP): 135 µM

Structure (SMILES): COc1cc(/C=C/C(=O)CC(=O)/C=C/c2ccc(O)c(OC)c2)ccc1O [Curcumin]
- IC50 ([1]; fluorescent label: DsRed): 4.13 µM
- IC50 ([1]; fluorescent label: GFP): 3.73 µM
- IC50 ([2]; fluorescent label: DsRed): 34.7 µM
- IC50 ([2]; fluorescent label: GFP): 53.8 µM

Structure (SMILES): C=C1/C(=C\C=C2/CCC[C@]3(C)[C@@H]([C@H](C)CCCC(C)C)CC[C@@H]23)C[C@@H](O)C[C@@H]1O [Alfacalcidol]
- IC50 ([1]; fluorescent label: DsRed): > 150 µM
- IC50 ([1]; fluorescent label: GFP): > 150 µM
- IC50 ([2]; fluorescent label: DsRed): > 150 µM
- IC50 ([2]; fluorescent label: GFP): > 150 µM

Structure (SMILES): Cc1cc(C(C#N)c2ccc(Cl)cc2)c(Cl)cc1NC(=O)c1cc(I)cc(I)c1O (stereo unspecified) [FLUKIVER]
- IC50 ([1]; fluorescent label: DsRed): < 9.85 µM
- IC50 ([1]; fluorescent label: GFP): < 9.85 µM
- IC50 ([2]; fluorescent label: DsRed): < 9.85 µM
- IC50 ([2]; fluorescent label: GFP): < 9.85 µM

Structure (SMILES): CN1C[C@H](CNC(=O)OCc2ccccc2)C[C@@H]2c3cccc4c3c(cn4C)C[C@H]21 [METERGOLINE]
- IC50 ([1]; fluorescent label: DsRed): 16.8 µM
- IC50 ([1]; fluorescent label: GFP): 15.9 µM
- IC50 ([2]; fluorescent label: DsRed): 50.7 µM
- IC50 ([2]; fluorescent label: GFP): 53.6 µM

Structure (SMILES): CC(=O)NC1CCSC1=O (stereo unspecified) [CITIOLASE]
- IC50 ([1]; fluorescent label: DsRed): 12.4 µM
- IC50 ([1]; fluorescent label: GFP): 38.9 µM
- IC50 ([2]; fluorescent label: DsRed): 56.8 µM
- IC50 ([2]; fluorescent label: GFP): 10.2 µM

Structure (SMILES): CO/N=C(\C(=O)N[C@@H]1C(=O)N2C(C(=O)O)=C(CSc3nc(=O)c(O)nn3C)CS[C@H]12)c1csc(N)n1 [ROCEPHIN]
- IC50 ([1]; fluorescent label: DsRed): < 9.85 µM
- IC50 ([1]; fluorescent label: GFP): < 9.85 µM
- IC50 ([2]; fluorescent label: DsRed): > 150 µM
- IC50 ([2]; fluorescent label: GFP): > 150 µM

Structure (SMILES): CC(=O)N1CCN(c2ccc(OCC3COC(Cn4ccnc4)(c4ccc(Cl)cc4Cl)O3)cc2)CC1 (stereo unspecified) [KETOZOLE]
- IC50 ([1]; fluorescent label: DsRed): 50.6 µM
- IC50 ([1]; fluorescent label: GFP): 32.2 µM
- IC50 ([2]; fluorescent label: DsRed): 112 µM
- IC50 ([2]; fluorescent label: GFP): 132 µM

Structure (SMILES): CCN1CCN(C(=O)N[C@@H](C(=O)N[C@@H]2C(=O)N3C(C(=O)O)=C(CSc4nnnn4C)CS[C@H]23)c2ccc(O)cc2)C(=O)C1=O [Cefoperazone (Cefobid)]
- IC50 ([1]; fluorescent label: DsRed): < 0.498 µM
- IC50 ([1]; fluorescent label: GFP): < 0.498 µM
- IC50 ([2]; fluorescent label: DsRed): 4.66 µM
- IC50 ([2]; fluorescent label: GFP): 6.86 µM

Structure (SMILES): Nc1ccn([C@@H]2O[C@H](CO)[C@@H](O)C2(F)F)c(=O)n1 [Gemcitabine hydrochloride]
- IC50 ([1]; fluorescent label: DsRed): < 9.85 µM
- IC50 ([1]; fluorescent label: GFP): < 9.85 µM
- IC50 ([2]; fluorescent label: DsRed): < 9.85 µM
- IC50 ([2]; fluorescent label: GFP): < 9.85 µM

Structure (SMILES): Cc1ccc(-c2cc(C(F)(F)F)nn2-c2ccc(S(N)(=O)=O)cc2)cc1 [Celecoxib]
- IC50 ([1]; fluorescent label: DsRed): 8.58 µM and 20.1 µM
- IC50 ([1]; fluorescent label: GFP): 9.91 µM and 18.2 µM
- IC50 ([2]; fluorescent label: DsRed): 114 µM and 112 µM
- IC50 ([2]; fluorescent label: GFP): 112 µM and 95.4 µM

Structure (SMILES): CCn1cc(C(=O)O)c(=O)c2cc3c(cc21)OCO3 [Oxolinic acid]
- IC50 ([1]; fluorescent label: DsRed): 15.1 µM
- IC50 ([1]; fluorescent label: GFP): 14.6 µM
- IC50 ([2]; fluorescent label: DsRed): 18.3 µM
- IC50 ([2]; fluorescent label: GFP): 16.1 µM

Structure (SMILES): Cc1ccc(C(=O)c2cc(O)c(O)c([N+](=O)[O-])c2)cc1 [Tolcapone]
- IC50 ([1]; fluorescent label: DsRed): < 9.85 µM
- IC50 ([1]; fluorescent label: GFP): < 9.85 µM
- IC50 ([2]; fluorescent label: DsRed): < 9.85 µM
- IC50 ([2]; fluorescent label: GFP): 14.4 µM

Structure (SMILES): CC[C@@H]1C(=O)N(C)c2cnc(Nc3ccc(C(=O)NC4CCN(C)CC4)cc3OC)nc2N1C1CCCC1 [BI 2536]
- IC50 ([1]; fluorescent label: DsRed): 21.6 µM
- IC50 ([1]; fluorescent label: GFP): 30.1 µM
- IC50 ([2]; fluorescent label: DsRed): 106 µM
- IC50 ([2]; fluorescent label: GFP): 112 µM

Structure (SMILES): Cc1ccc(C(=O)N(CCCN)[C@@H](c2oc3cc(Cl)ccc3c(=O)c2Cc2ccccc2)C(C)C)cc1
- IC50 ([1]; fluorescent label: DsRed): 5.93 µM
- IC50 ([1]; fluorescent label: GFP): 7.88 µM
- IC50 ([2]; fluorescent label: DsRed): 30.8 µM
- IC50 ([2]; fluorescent label: GFP): 30.6 µM

Structure (SMILES): OCCN1CCN(CCCN2c3ccccc3Sc3ccc(Cl)cc32)CC1 [Perphenazine]
- IC50 ([1]; fluorescent label: DsRed): 27.1 µM
- IC50 ([1]; fluorescent label: GFP): 21.1 µM
- IC50 ([2]; fluorescent label: DsRed): 70.8 µM
- IC50 ([2]; fluorescent label: GFP): 65.7 µM

Structure (SMILES): COC1=C(OC)C(=O)C(CCCCCCCCCCO)=C(C)C1=O [IDEBENONE]
- IC50 ([1]; fluorescent label: DsRed): 15.5 µM
- IC50 ([1]; fluorescent label: GFP): 15 µM
- IC50 ([2]; fluorescent label: DsRed): 22.8 µM
- IC50 ([2]; fluorescent label: GFP): 28.8 µM

Structure (SMILES): CN[C@H]1CC[C@@H](c2ccc(Cl)c(Cl)c2)c2ccccc21 [Sertraline HCl]
- IC50 ([1]; fluorescent label: DsRed): 12 µM
- IC50 ([1]; fluorescent label: GFP): < 9.85 µM
- IC50 ([2]; fluorescent label: DsRed): 94.5 µM
- IC50 ([2]; fluorescent label: GFP): 111 µM

Structure (SMILES): C[C@H]1[C@H](C)CC[C@]2(C(=O)O)CC[C@]3(C)C(=CC[C@@H]4[C@@]5(C)C[C@@H](O)[C@H](O)[C@@](C)(CO)[C@@H]5CC[C@]43C)[C@H]12 [Asiatic acid]
- IC50 ([1]; fluorescent label: DsRed): 17 µM and 28 µM
- IC50 ([1]; fluorescent label: GFP): 17.5 µM and 23.5 µM
- IC50 ([2]; fluorescent label: DsRed): 54.9 µM and 27.7 µM
- IC50 ([2]; fluorescent label: GFP): 29.7 µM and 27.7 µM

Structure (SMILES): O=C(c1ccc(Nc2nccc(-c3cc4ccccc4s3)n2)cc1)N1CCC(N2CCCC2)CC1 [IKK-16]
- IC50 ([1]; fluorescent label: DsRed): 18.3 µM
- IC50 ([1]; fluorescent label: GFP): 17.7 µM
- IC50 ([2]; fluorescent label: DsRed): 49.4 µM
- IC50 ([2]; fluorescent label: GFP): 56.8 µM

Structure (SMILES): CN1CCN(CCCN2c3ccccc3Sc3ccc(Cl)cc32)CC1 [Prochlorperazine dimaleate]
- IC50 ([1]; fluorescent label: DsRed): 21.5 µM
- IC50 ([1]; fluorescent label: GFP): 18 µM
- IC50 ([2]; fluorescent label: DsRed): 56.2 µM
- IC50 ([2]; fluorescent label: GFP): 54.5 µM

Structure (SMILES): CC(C)c1cccc(C(C)C)c1N1C(=O)c2ccc(O)cc2C1=O [5HPP-33]
- IC50 ([1]; fluorescent label: DsRed): 40.7 µM
- IC50 ([1]; fluorescent label: GFP): < 9.85 µM
- IC50 ([2]; fluorescent label: DsRed): 25.8 µM
- IC50 ([2]; fluorescent label: GFP): 111 µM

Structure (SMILES): Oc1ccc(Cl)cc1Cc1cc(Cl)ccc1O [DICHLOROPHEN]
- IC50 ([1]; fluorescent label: DsRed): < 9.85 µM
- IC50 ([1]; fluorescent label: GFP): < 9.85 µM
- IC50 ([2]; fluorescent label: DsRed): < 9.85 µM
- IC50 ([2]; fluorescent label: GFP): < 9.85 µM

Structure (SMILES): Cc1ccc(C(=O)Nc2ccc(CN3CCN(C)CC3)c(C(F)(F)F)c2)cc1C#Cc1cnc2cccnn12
- IC50 ([1]; fluorescent label: DsRed): 8.28 µM
- IC50 ([1]; fluorescent label: GFP): 4.54 µM
- IC50 ([2]; fluorescent label: DsRed): 21.8 µM
- IC50 ([2]; fluorescent label: GFP): 27.4 µM

Structure (SMILES): C=C1c2cccc(O)c2C(=O)C2=C(O)[C@]3(O)C(=O)C(C(N)=O)=C(O)[C@@H](N(C)C)[C@@H]3[C@@H](O)[C@H]12 [Methacycline hydrochloride (Physiomycine)]
- IC50 ([1]; fluorescent label: DsRed): < 0.498 µM
- IC50 ([1]; fluorescent label: GFP): < 0.498 µM
- IC50 ([2]; fluorescent label: DsRed): 0.702 µM
- IC50 ([2]; fluorescent label: GFP): 0.644 µM

Structure (SMILES): O=c1[nH]cc(F)c(=O)[nH]1 [5-Fluorouracil]
- IC50 ([1]; fluorescent label: DsRed): < 9.85 µM
- IC50 ([1]; fluorescent label: GFP): < 9.85 µM
- IC50 ([2]; fluorescent label: DsRed): < 9.85 µM
- IC50 ([2]; fluorescent label: GFP): < 9.85 µM

Structure (SMILES): C=CC(C1=CC(=O)C(OC)=CC1=O)c1ccccc1 (stereo unspecified) [4-METHOXYDALBERGIONE]
- IC50 ([1]; fluorescent label: DsRed): < 9.85 µM
- IC50 ([1]; fluorescent label: GFP): 13.3 µM
- IC50 ([2]; fluorescent label: DsRed): 59.4 µM
- IC50 ([2]; fluorescent label: GFP): 63.4 µM
